Measurements as given in patent publication US20230158025A1 (UNIVERSITY OF UTAH RESEARCH FOUNDATION, priority 2020, published 2023).
Read-outs that look alike come from different tables or passages of the source.

Assays:
[1] = aqueous kinetic solubility
[2] = rat microsomal stability (RLM); details: for half-life: rat, rat liver microsomes
recombinant human GALK1 = recombinant human GALK1 (Homo sapiens, UniProt P51570); experiment: hGALK1 biochemical activity assay (Kinase-Glo Plus, ATP depletion)
In short: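 Recombinant human or mouse GALK1 (5 nM, with 100 μM galactose, in the added enzyme solution) was run with ATP (35 μM in the substrate solution) in HEPES pH 8.0 buffer. Compounds were tested at 11 1/3-step concentrations from 57.4 μM to 0.97 nM. After 1 h at room temperature, remaining ATP was read by Kinase-Glo Plus luminescence.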

hGALK1m = target: T1, hGALK1m (Homo sapiens, UniProt P51570, E253A/K252A); experiment: in vitro hGALK1 activity assay of the structure-based optimisation (Example 12, Tables 17-20); type: biochemical
T1 construct: made in house; host or cells: E. coli HMS174
Description: In vitro hGALK1 activity assays were performed as previously described. Liu et al., Bioorg. Med. Chem. Lett. 25(3): 721-727 (2015), which is incorporated by reference herein for the specific teachings thereof. The biochemical assay was performed by coupling the activity of recombinant human or mouse GALK1 to the Kinase-Glo Plus luminescent ATP detection kit, using ATP depletion as a measure of GALK1 turnover. Specifically, three μL/well of ATP substrate solution (35 μM ATP) in assay buffer (20 mM HEPES pH 8.0, 5 mM MgCl2, 60 mM NaCl, 1 mM DTT, 0.01% BSA final concentration) was dispensed into 1536-well assay plates (Greiner, white solid-bottom medium-binding plates). Aliquots of compound (23 nL solubilized in DMSO) were transferred to the assay plates using a Kalypsys 1536-well pintool such that 11 concentrations with 1/3 dilutions ranging from 57.4 μM-0.97 nM are tested. One μL/well of GALK-galactose solution (5 nM GALK1, 100 μM galactose) in assay buffer was then added, yielding a final reaction volume of 4 μL/well. Following a 1-hour room temperature incubation, 4 μL of Kinase-Glo Plus detection reagent was added to provide an ATP-dependent luminescent readout (final assay volume: 8 μL/well). Luminescence was detected using a ViewLux plate reader (PerkinElmer) after a 10-minute incubation, using a 1 second exposure time and 2× binning.
The in vitro hGALK1 activity assay was performed as previously described. Liu et al., Bioorg. Med. Chem. Lett. 25(3): 721-727 (2015). For the measurement of cellular Gal-1P reduction, compounds at different concentrations were added to cultured patient fibroblast at 80% confluency. After incubating the compounds for 16 hours, 10 mM galactose was added to the culture. After another 4 hours, cells were washed with cold PBS buffer 3× and harvested for gal-1P measurement, according to the previously published method. Liu et al., Bioorg. Med. Chem. Lett. 25(3): 721-727 (2015).

recombinant mouse GALK1 = recombinant mouse GALK1 (Mus musculus, UniProt Q9R0N0); experiment: mGALK1 biochemical activity assay (Kinase-Glo Plus, ATP depletion)
In short: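 Recombinant GALK1 (5 nM) with 100 μM galactose; GALK1 turnover read as ATP depletion by Kinase-Glo Plus luminescence. Reaction ran 1 h at room temperature before detection reagent was added.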

[3] = recombinant human GALK1, Kinase-Glo Plus ATP depletion, read-out: hGALK
[4] = PAMPA, ADME P: PAMPA permeability (class), Tables 17-19, class probably colour-coded, colour lost
[5] = Tables 18-19, read-out: Max Response (%)
[6] = Tables 18-19 and text of Example 12
[7] = Tables 2-15, 35 μM ATP, 100 μM galactose, 1 h, bracketed figure after some values is undefined and not reported, read-out: mGALK IC50
[8] = recombinant mouse GALK1, Kinase-Glo Plus ATP depletion, read-out: mGALK
[9] = Tables 2-15, 35 μM ATP, 100 μM galactose, 1 h, bracketed figure after some values (e.g. −1.2) is undefined and not reported, read-out: hGALK IC50
[10] = Tables 18-20 and text of Example 12
[11] = PAMPA, Perm. (1 × 10^−6 cm/sec)
[12] = 1 h, Table 17, read-out: Efficacy
[13] = Table 17, amide group optimization, no unit in table

Chain of recombinant mouse GALK1 (Q9R0N0 whole entry): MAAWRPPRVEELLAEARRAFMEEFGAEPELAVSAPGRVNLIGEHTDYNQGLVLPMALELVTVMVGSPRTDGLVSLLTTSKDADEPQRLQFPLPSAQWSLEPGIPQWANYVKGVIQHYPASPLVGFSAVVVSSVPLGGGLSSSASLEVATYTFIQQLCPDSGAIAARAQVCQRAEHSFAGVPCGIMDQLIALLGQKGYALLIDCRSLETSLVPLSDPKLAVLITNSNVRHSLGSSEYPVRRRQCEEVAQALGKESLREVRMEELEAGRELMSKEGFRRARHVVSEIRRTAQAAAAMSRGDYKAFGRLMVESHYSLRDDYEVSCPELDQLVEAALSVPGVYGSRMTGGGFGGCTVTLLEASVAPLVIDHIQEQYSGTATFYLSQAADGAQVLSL
Chain of recombinant human GALK1 (P51570 whole entry): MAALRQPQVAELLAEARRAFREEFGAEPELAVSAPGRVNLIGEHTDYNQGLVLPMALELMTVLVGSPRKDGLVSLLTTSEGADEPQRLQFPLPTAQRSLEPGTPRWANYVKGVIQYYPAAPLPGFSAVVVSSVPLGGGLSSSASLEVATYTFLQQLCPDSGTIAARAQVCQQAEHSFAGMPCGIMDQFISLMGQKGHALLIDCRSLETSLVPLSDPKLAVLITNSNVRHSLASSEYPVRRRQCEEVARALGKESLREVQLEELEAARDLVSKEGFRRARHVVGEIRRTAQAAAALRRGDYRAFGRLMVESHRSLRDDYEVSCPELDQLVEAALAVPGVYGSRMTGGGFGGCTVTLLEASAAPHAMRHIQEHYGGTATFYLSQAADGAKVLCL
T1 sequence (P51570 whole entry K252A/E253A): as the sequence (P51570 whole entry) above, with K252A, E253A counted along it

SMILES	Sol. [1] [µg/mL]	Metab. Stabil. (m) ([2]; microsomal half-life)	half-life [2] [min]	IC50 (recombinant human GALK1; [3]) [nM]	Perm. (1 × 10^−6 cm/sec) (PAMPA permeability)	Papp (PAMPA permeability; [4]) [×10⁻⁶ cm/s]	Emax (hGALK1m; [5]) [%]	IC50 (hGALK1m; [6]) [nM]	IC50 (recombinant mouse GALK1; [7]) [µM]	IC50 (recombinant mouse GALK1; [8]) [µM]	IC50 (recombinant human GALK1; [9]) [nM]	IC50 (hGALK1m; [10]) [nM]	fold improvement of potency (IC50) versus parent compound (hGALK1m; increase in potency relative to the unsubstituted parent) [fold]	Sol. ([1]; aqueous kinetic solubility) [µg/mL]	Metab. Stabil. (m) ([2]; microsomal stability half-life)	Papp (PAMPA permeability; [11]) [×10⁻⁶ cm/s]	Emax (hGALK1m; [12]) [%]	change of potency versus parent compound (in words) (hGALK1m)	Perm. (1 × 10^−6 cm/sec) (PAMPA permeability; PAMPA)	IC50 (hGALK1m; [13]) [nM]
CC1=C(C(=O)Nc2cc(C(=O)O)ccn2)C(c2ccccc2Cl)N=C(Nc2nc3c(C)cccc3o2)N1 (stereo not drawn) [Compound 18, 2-(4-(2-chlorophenyl)-6-methyl-2-((4-methylbenzo[d]oxazol-2-yl)amino)-1,4-dihydropyrimidine-5-carboxamido)isonicotinic acid]	3.5	>30	< 10	9680	<1.3 1 × 10^−6 cm/sec	< 10	100	5500	17.2	17.2	–	–	–	–	–	–	–	–	–	–
CC1=C(C(=O)Nc2cc(C(=O)O)ccn2)C(c2ccccc2Cl)N=C(Nc2nc3cccc(C)c3o2)N1 (stereo not drawn) [Compound 15, 2-(4-(2-chlorophenyl)-6-methyl-2-((7-methylbenzo[d]oxazol-2-yl)amino)-1,4-dihydropyrimidine-5-carboxamido)isonicotinic acid]	>76	>30	< 10	–	–	< 10	100	–	6.85	6.85	970	365	2.6	–	–	–	–	–	–	–
CC1=C(C(=O)NCc2cn(C)cn2)C(c2ccccc2Cl)N=C(Nc2nc3ccccc3o2)N1 (racemic) [Compound 233, 2-(benzo[d]oxazol-2-ylamino)-4-(2-chlorophenyl)-6-methyl-N-((1-methyl-1H-imidazol-4-yl)methyl)-1,4-dihydropyrimidine-5-carboxamide]	–	–	< 10	1090	–	< 10	–	770	7.69	7.69	1090	–	–	26.6	14.56	868	90	–	–	–
CC1=C(C(=O)Nc2cc(C(=O)O)ccn2)C(c2ccccc2Cl)N=C(Nc2nc3cc(N)ccc3o2)N1 (stereo not drawn) [Compound 12, 2-(2-((5-aminobenzo[d]oxazol-2-yl)amino)-4-(2-chlorophenyl)-6-methyl-1,4-dihydropyrimidine-5-carboxamido)isonicotinic acid]	>76	>30	< 10	–	–	< 10	100	5500	21.7	21.7	7690	–	–	–	–	–	–	–	–	–
CC1=C(C(=O)NCc2nc3ccccc3n2C)C(c2ccccc2Cl)N=C(Nc2nc3ccccc3o2)N1 (stereo not drawn) [Compound 234, 2-(benzo[d]oxazol-2-ylamino)-4-(2-chlorophenyl)-6-methyl-N-((1-methyl-1H-benzo[d]imidazol-2-yl)methyl)-1,4-dihydropyrimidine-5-carboxamide]	–	–	< 10	8630	–	< 10	–	–	13.7	13.7	8630	–	–	<1	4.516	–	48	significantly impaired the potency	–	–
CC1=C(C(=O)Nc2cc(C(=O)O)ccn2)C(c2ccccc2Cl)N=C(Nc2nc3cccc(F)c3o2)N1 (stereo not drawn) [Compound 10, 2-(4-(2-chlorophenyl)-2-((7-fluorobenzo[d]oxazol-2-yl)amino)-6-methyl-1,4-dihydropyrimidine-5-carboxamido)isonicotinic acid]	>77	>30	< 10	1720	<1 1 × 10^−6 cm/sec	< 10	100	1000	8.63	8.63	–	–	–	–	–	–	–	did not change the potency	–	–
CC1=C(C(=O)NCc2cnn(C)c2)C(c2ccc(C)cc2Cl)N=C(Nc2nc3cccc(N)c3o2)N1 (racemic) [Compound 83, 2-((7-aminobenzo[d]oxazol-2-yl)amino)-4-(2-chloro-4-methylphenyl)-6-methyl-N-((1-methyl-1H-pyrazol-4-yl)methyl)-1,4-dihydropyrimidine-5-carboxamide]	4.47	14.13	–	220	–	–	–	–	2.17	2.17	220	47	–	–	–	25.3	–	–	–	–
COc1cccc(C2N=C(Nc3nc4ccc(F)cc4o3)NC(C)=C2C(=O)Nc2cc(C(=O)O)ccn2)c1Cl (stereo not drawn) [Compound 52, 2-(4-(2-chloro-3-methoxyphenyl)-2-((6-fluorobenzo[d]oxazol-2-yl)amino)-6-methyl-1,4-dihydropyrimidine-5-carboxamido)isonicotinic acid]	>81	>30	< 10	6850	<1 1 × 10^−6 cm/sec	< 10	100	5400	19.3	19.3	6850	–	–	–	–	–	–	–	–	–
CC1=C(C(=O)Nc2cccc(C(=O)O)c2)C(c2ccccc2Cl)N=C(Nc2nc3ccccc3o2)N1 (stereo not drawn) [Compound 142, 3-(2-(benzo[d]oxazol-2-ylamino)-4-(2-chlorophenyl)-6-methyl-1,4-dihydropyrimidine-5-carboxamido)benzoic acid]	–	–	< 10	2430	–	< 10	–	–	6.11	6.11	–	–	–	59.1	>30	–	96	–	<1 1 × 10^−6 cm/sec	3100
CC1=C(C(=O)Nc2cc(C(=O)O)ccn2)C(c2cccc(Cl)c2Cl)N=C(Nc2nc3ccc(F)cc3o2)N1 (stereo not drawn) [Compound 49, 2-(4-(2,3-dichlorophenyl)-2-((6-fluorobenzo[d]oxazol-2-yl)amino)-6-methyl-1,4-dihydropyrimidine-5-carboxamido)isonicotinic acid]	55.5	>30	< 10	8630	–	< 10	100	3600	21.7	21.7	8630	–	–	–	–	–	–	compromised the potency	–	–
CC1=C(C(=O)NCc2cncs2)C(c2ccccc2Cl)N=C(Nc2nc3ccccc3o2)N1 (stereo not drawn) [Compound 232, 2-(benzo[d]oxazol-2-ylamino)-4-(2-chlorophenyl)-6-methyl-N-(thiazol-5-ylmethyl)-1,4-dihydropyrimidine-5-carboxamide]	–	–	< 10	1930	–	< 10	–	–	12.2	12.2	1930	–	–	<1	6.432	–	84	–	507.4 1 × 10^−6 cm/sec	1200
CC1=C(C(=O)Nc2cc(C(=O)O)ccn2)C(c2ccccc2Cl)N=C(Nc2nc3cccc(Cl)c3o2)N1 (stereo not drawn) [Compound 17, 2-(2-((7-chlorobenzo[d]oxazol-2-yl)amino)-4-(2-chlorophenyl)-6-methyl-1,4-dihydropyrimidine-5-carboxamido)isonicotinic acid]	57.5	>30	< 10	–	<1 1 × 10^−6 cm/sec	< 10	100	1000	9.68	9.68	1930	–	–	–	–	–	–	did not change the potency	–	–
